{"source": "patent US20160022168A1", "about": "“BRAIN STATE DEPENDENT THERAPY FOR IMPROVED NEURAL TRAINING AND REHABILITATION” (UNIVERSITY OF LETHBRIDGE, priority 2014, published 2016)", "key": {"auditory cortex": {"tested_on": "auditory cortex", "assay": "Population recordings in auditory cortex (A1) before, during and after tone stimulation in urethane-anesthetised rats", "type": "in vivo, Long Evans rats", "details": "for brain state in auditory cortex: urethane-anesthetised rats, carbachol infused into posterior hypothalamic nucleus, amphetamine 1 mg/kg IP, MK801 0.1 mg/kg i.p.", "experimental": "(§1) Rats were then placed in a stereotaxic frame, and a window in the skull was prepared over primary somatosensory cortex (S1) hindlimb area (AP −1 mm; ML 2 mm; DV 1.5 mm) For auditory experiments, 8 Long Evans rats (250-350 g) were anesthetised with urethane (1.5 g/kg IP) and placed in a nasal restraint that left the ears free. A window in the skull (2×3 mm) was prepared over the primary auditory cortex. For all recordings, Applicant used silicon probes consisting of eight shanks (200 μm shank separation); each shank had 4 recording sites in a tetrode configuration (20 μm separation between sites, 160 μm^2 site area; 1-3 MOhm impedance; NeuroNexus Technologies).\nTo ensure that our results are not affected by differences in firing rates among animals, Applicant down sampled the multi-unit activity of all animals to match the number of spikes in the sample with the lowest firing rate."}, "[1]": {"tested_on": "primary somatosensory cortex (S1)", "assay": "Population recordings in primary somatosensory cortex (S1) before, during and after tactile stimulation in urethane-anesthetised rats", "type": "in vivo, Long Evans rats", "details": "for firing rate reactivation (explained variance) during the stimulation period: 1 sec intervals of spontaneous activity, FIG. 4C; for Euclidian distance between firing rate correlation matrices, evoked vs following spontaneous compared with evoked vs preceding spontaneous: FIG. 4B, paired t-test; for mean corr. coef. change of latency correlation (spontaneous vs evoked) after tactile stimulation: latency from cross-correlogram with MUA, FIG. 2E; for mean corr. coef. change of latency correlation (spontaneous vs evoked) after tactile stimulation / mean corr. coef. change of latency correlation from pairwise correlograms: mean ± SEM; for mean corr. coef. change of latency correlation from pairwise correlograms: pair-wise cross-correlograms, FIG. 2E white bars; for latency correlation after vs before stimulation (averaged values): t-test", "experimental": "as §1\nThe time course of the experimental protocol is illustrated in FIG. 1A and FIG. 1B. […] Each recording period consisted of 10 min of spontaneous activity, followed by 20 minutes of tactile stimulation, and then another 10 min of spontaneous activity. The tactile stimulation consisted of 600 repetitions of 1 second stimulation at 20 Hz followed by 1 second without stimulation. The tactile stimulator consisted of a plastic rod attached at one end to a membrane of a speaker controlled by a computer. The other end of the rod was placed in contact with left hind limb.\nIn order to quantify temporal relations among neurons, Applicant calculated the mean spike latency as described previously. Briefly, for each neuron, latency is defined as the center of mass of a cross-correlogram of that neuron with the summed activity of all other simultaneously recorded cells (MUA), within a time window of 100 ms (FIG. 2A). Before calculating the center of mass, cross-correlograms were smoothed with a Gaussian kernel with SD=5 ms and normalized between 0 and 1 to discard effects of baseline activity. Thus this measure estimates the time when the corresponding neuron is most likely to fire with respect to the population activity. In addition to analysis of cross-correlograms between single neurons and multiunit activity as described above, Applicant also calculated latency from pair-wise cross-correlograms to look at temporal relations between neurons in more detail (FIG. 2E white bars).\nExtracellular signals were high-pass filtered (0.1 Hz) and amplified (1,000 times) using a 64-channel amplifier (Neuralynx). Signals were then digitized at 32 kHz. Units were identified and isolated by a semiautomatic cluster cutting algorithm (available at: klustakwik.sourceforge.net), followed by manual clustering (MClust).\nTo ensure that our results are not affected by differences in firing rates among animals, Applicant down sampled the multi-unit activity of all animals to match the number of spikes in the sample with the lowest firing rate. […]\nFor this analysis Applicant only included neurons with a firing rate above 0.6 Hz."}}, "data": [{"compound": "C[C@]12N[C@H](Cc3ccccc31)c1ccccc12", "note": "[MK801]", "values": [{"measurement": "replay activity (reverberation of stimulus-evoked patterns)", "setting": "auditory cortex; after NMDA receptor antagonist application", "result": "suppressed"}]}, {"compound": "C[N+](C)(C)CCOC(N)=O", "note": "[carbachol]", "values": [{"measurement": "brain state in auditory cortex", "setting": "auditory cortex", "result": "desynchronization of the brain state"}]}, {"compound": "CCOC(N)=O", "note": "[urethane]", "values": [{"measurement": "firing rate reactivation (explained variance) during the stimulation period", "setting": "[1]; S1", "result": "significant firing rate reactivation"}, {"measurement": "Euclidian distance between firing rate correlation matrices, evoked vs following spontaneous compared with evoked vs preceding spontaneous", "setting": "[1]; S1", "result": "non-significant increase in similarity"}, {"measurement": "mean corr. coef. change of latency correlation (spontaneous vs evoked) after tactile stimulation", "setting": "[1]; S1", "result": "−0.03±0.06"}, {"measurement": "mean corr. coef. change of latency correlation from pairwise correlograms", "setting": "[1]; S1", "result": "0.049±0.025"}, {"measurement": "latency correlation after vs before stimulation (averaged values)", "setting": "[1]; S1", "result": "not significantly different"}, {"measurement": "brain state (cortical activity, LFP and unit activity) in S1", "setting": "[1]; urethane 1.5 g/kg IP, amphetamine 1 mg/kg injected in addition", "result": "synchronized state"}, {"measurement": "brain state in auditory cortex", "setting": "auditory cortex", "result": "synchronized brain state"}]}, {"compound": "d-Methamphetamine HCl", "values": [{"measurement": "firing rate reactivation (explained variance) during the stimulation period", "setting": "[1]; S1", "result": "significant firing rate reactivation"}, {"measurement": "Euclidian distance between firing rate correlation matrices, evoked vs following spontaneous compared with evoked vs preceding spontaneous", "setting": "[1]; S1", "result": "smaller"}, {"measurement": "mean slope of latency correlation after stimulation ceased", "setting": "[1]; S1, after stimulation FIG. 2G, ± SD", "result": "−0.07±0.08"}, {"measurement": "mean slope of latency correlation, pre-stimulus spontaneous periods", "setting": "[1]; S1, first three points FIG. 2G, ± SD", "result": "−0.01±0.1"}, {"measurement": "mean corr. coef. change of latency correlation (spontaneous vs evoked) after tactile stimulation", "setting": "[1]; S1", "result": "0.31±0.062"}, {"measurement": "mean corr. coef. change of latency correlation from pairwise correlograms", "setting": "[1]; S1", "result": "0.098±0.023"}, {"measurement": "latency correlation after vs before stimulation (averaged values)", "setting": "[1]; S1", "result": "significantly higher after stimulation"}, {"measurement": "mean slope of latency correlation during stimulation", "setting": "[1]; S1, three points during stimulation FIG. 2G, ± SD", "result": "0.11±0.12"}, {"measurement": "duration of desynchronized state after injection", "setting": "[1]; urethane-anesthetised rats, amphetamine 1 mg/kg", "result": "at least 30 minutes"}]}]}
